Data taken from ChEMBL document CHEMBL1142867, “Antiviral activity of triazine analogues of 1-(S)-[3-hydroxy-2-(phosphonomethoxy)propyl]cytosine (cidofovir) and related compounds” (J Med Chem, 2007).
Converted amounts (≈) assume the structure as drawn.

Legend:
[1] = tested on: Human immunodeficiency virus 1; type: functional, organism-based; conditions: Human immunodeficiency virus 1, 3B, CCRF-CEM
Human alphaherpesvirus 2 [2] = type: functional, organism-based; conditions: Human alphaherpesvirus 2, G, HEL
[3] = tested on: Vesicular stomatitis virus; assay: microbe, parasite or virus in culture; conditions: HeLa
[4] = tested on: Respiratory syncytial virus; type: functional, organism-based; conditions: human respiratory syncytial virus, Long, HeLa
Human respirovirus 3 = type: functional, organism-based; conditions: Human respirovirus 3, Vero
Punta Toro virus = type: functional, organism-based; conditions: Vero
[5] = tested on: Human immunodeficiency virus 2; type: functional, organism-based; conditions: Human immunodeficiency virus 2, ROD, CCRF-CEM
Vaccinia virus = type: functional, organism-based; conditions: Orthopoxvirus vaccinia, Lederle, HEL
[6] = Cytotoxicity against HSB2 cells assessed as alteration in cell morphology; type: cell-based, CCRF-HSB-2; conditions: human, read-out: Activity
[7] = Cytotoxicity against HEL cells assessed as alteration in cell morphology after 3 days; type: cell-based; conditions: human, read-out: Activity
Coxsackievirus B4 [8] = type: functional, organism-based; conditions: Enterovirus B, Vero
[9] = Cytotoxicity against HeLa cells assessed as alteration in cell morphology; type: cell-based; conditions: human
[10] = Cytotoxicity against Vero cells assessed as alteration in cell morphology; type: cell-based; conditions: chlorocebus sabaeus
[11] = tested on: Moloney murine sarcoma virus; assay: Antiviral activity against MSV in mouse C3H cells assessed as inhibition of virus-induced transformation after 6 days; type: functional, organism-based; conditions: 144 h
[12] = Cytotoxicity against C3H cells assessed as alteration in cell morphology; type: cell-based; conditions: mouse
HEL = assay: Cytotoxicity against HEL cells assessed as inhibition of cell growth after 3 days; type: cell-based; conditions: human, 72 h
Human alphaherpesvirus 1 [13] = type: functional, organism-based; conditions: Human alphaherpesvirus 1, KOS, HEL
[14] = tested on: Mammalian orthoreovirus 1; type: functional, organism-based; conditions: Mammalian orthoreovirus 1, Vero
Coxsackievirus B4 [15] = type: functional, organism-based; conditions: Enterovirus B, HeLa
Human alphaherpesvirus 3 [16] = assay: Antiviral activity against VZV OKA in HEL cells assessed as inhibition of plaque formation; type: functional, organism-based; conditions: Human alphaherpesvirus 3, OKA
[17] = Cytotoxicity against CEM cells assessed as reduction of cell growth; type: cell-based; conditions: human, CEM (CCRF-CEM) cells
[18] = Cytotoxicity against E6SM cells assessed as alteration in cell morphology; type: cell-based; conditions: human
Sindbis virus = type: functional, organism-based; conditions: Vero
Human betaherpesvirus 5 [19] = type: functional, organism-based; conditions: Human betaherpesvirus 5, AD169, HEL
Human alphaherpesvirus 3 [20] = assay: Antiviral activity against TK- VZV 07-1 in HEL cells assessed as inhibition of plaque formation; type: functional, organism-based; conditions: Human alphaherpesvirus 3, 07-1, HEL
Human alphaherpesvirus 2 [21] = type: functional, organism-based; conditions: Human alphaherpesvirus 2, Lyons, HEL
[22] = tested on: Vesicular stomatitis virus; assay: microbe, parasite or virus in culture; conditions: E6SM
Human adenovirus 2 = type: functional, organism-based; conditions: Human mastadenovirus C, HEL
Human betaherpesvirus 5 [23] = type: functional, organism-based; conditions: Human betaherpesvirus 5, Davis, HEL
Human alphaherpesvirus 1 [24] = type: functional, organism-based; conditions: Human alphaherpesvirus 1, KOS, HEL; remark: listed apart in the source
Hepatitis C virus = assay: Antiviral activity against HCV in Huh5-2 cells assessed as inhibition of HCV subgenomic replicon replication; type: functional, organism-based, Hepacivirus hominis; conditions: Huh-5-2
[25] = Cytotoxicity against Huh5-2 cells assessed as reduction of cell growth; type: cell-based, Huh-5-2; conditions: human
Yellow fever virus = type: functional, organism-based; conditions: Vero

Row | Structure (SMILES) | EC50 (Human alphaherpesvirus 2 [2]) | EC50 [3] | EC50 [4] | EC50 (Human respirovirus 3) | EC50 (Punta Toro virus) | EC50 (Vaccinia virus) | MCC at 72 h [7] | EC50 (Coxsackievirus B4 [8]) | MCC [9] | MCC [10] | Activity (HEL) | EC50 (Human alphaherpesvirus 1 [13]) | EC50 [14] | EC50 (Coxsackievirus B4 [15]) | EC50 (Human alphaherpesvirus 3 [16]) | MCC [18] | EC50 (Sindbis virus) | EC50 (Human betaherpesvirus 5 [19]) | EC50 (Human alphaherpesvirus 3 [20]) | EC50 [22] | other results
1 | NC(=NC(=O)NC[C@@H](CO)OCP(=O)(O)O)NC=O | 6.58 µg/mL (≈ 22.1 µM) | > 100 µg/mL | > 100 µg/mL | > 100 µg/mL | > 100 µg/mL | 8.35 µg/mL (≈ 28 µM) | > 50 µg/mL | > 100 µg/mL | > 100 µg/mL | > 100 µg/mL | > 50 µg/mL | 1.35 µg/mL (≈ 4.53 µM) | > 100 µg/mL | > 100 µg/mL | 0.042 µg/mL (≈ 0.141 µM) | > 100 µg/mL | > 100 µg/mL | 0.1 µg/mL (≈ 0.335 µM) | 0.046 µg/mL (≈ 0.154 µM) | > 100 µg/mL | EC50 [1]: > 100 µg/mL; EC50 [5]: > 100 µg/mL; MCC [6]: ≥ 200 µg/mL; EC50 [11]: 130 µg/mL (≈ 436 µM); MCC [12]: > 100 µg/mL; CC50 [17]: ≥ 100 µg/mL; EC50 (Human alphaherpesvirus 2 [21]): 3.16 µg/mL (≈ 10.6 µM); EC50 (Human adenovirus 2): 17.8 µg/mL (≈ 59.7 µM); EC50 (Human betaherpesvirus 5 [23]): 0.12 µg/mL (≈ 0.402 µM); EC50 (Human alphaherpesvirus 1 [24]): 2.85 µg/mL (≈ 9.56 µM)
2 | Nc1ncn(C[C@@H](CO)OCP(=O)(O)O)c(=O)n1 | 0.35 µg/mL (≈ 1.25 µM) | > 400 µg/mL | > 400 µg/mL | > 80 µg/mL | > 80 µg/mL | 2.56 µg/mL (≈ 9.14 µM) | > 50 µg/mL | > 80 µg/mL | > 400 µg/mL | 400 µg/mL | >= 140 ug ml-1 | 0.077 µg/mL (≈ 0.275 µM) | > 80 µg/mL | > 400 µg/mL | 0.027 µg/mL (≈ 0.0964 µM) | > 400 µg/mL | > 80 µg/mL | 0.078 µg/mL (≈ 0.278 µM) | 0.019 µg/mL (≈ 0.0678 µM) | > 400 µg/mL | EC50 [1]: > 100 µg/mL; EC50 [5]: > 100 µg/mL; EC50 (Hepatitis C virus): > 50 µg/mL; MCC [6]: 16 µg/mL; EC50 [11]: 22 µg/mL (≈ 78.5 µM); MCC [12]: 20 µg/mL; CC50 [25]: > 50 µg/mL; EC50 (Yellow fever virus): > 100 µg/mL; CC50 [17]: 28 µg/mL (≈ 99.9 µM); EC50 (Human alphaherpesvirus 2 [21]): 0.25 µg/mL (≈ 0.892 µM); EC50 (Human betaherpesvirus 5 [23]): 0.054 µg/mL (≈ 0.193 µM); EC50 (Human alphaherpesvirus 1 [24]): 0.24 µg/mL (≈ 0.857 µM)
3 | Nc1ccn(C[C@@H](CO)OCP(=O)(O)O)c(=O)n1.O.O [CIDOFOVIR] | 0.35 µg/mL | – | – | – | – | 2.6 µg/mL | > 100 µg/mL | – | – | – | 60.9 µg/mL | 0.09 µg/mL | – | – | 0.077 µg/mL | – | – | 0.2 µg/mL | 0.073 µg/mL | – | MCC [6]: 37 µg/mL; EC50 (Human alphaherpesvirus 2 [21]): 0.43 µg/mL; EC50 (Human adenovirus 2): 1.53 µg/mL; EC50 (Human betaherpesvirus 5 [23]): 0.3 µg/mL; EC50 (Human alphaherpesvirus 1 [24]): 0.38 µg/mL
4 | NC(=O)c1ncn([C@@H]2O[C@H](CO)[C@@H](O)[C@H]2O)n1 [RIBAVIRIN] | – | 80 µg/mL (≈ 328 µM) | 16 µg/mL (≈ 65.5 µM) | 48 µg/mL (≈ 197 µM) | 48 µg/mL (≈ 197 µM) | – | – | 240 µg/mL (≈ 983 µM) | > 400 µg/mL | > 400 µg/mL | – | – | 48 µg/mL (≈ 197 µM) | 48 µg/mL (≈ 197 µM) | – | > 400 µg/mL | 240 µg/mL (≈ 983 µM) | – | – | 240 µg/mL (≈ 983 µM) | –
5 | NC(N)=NC(=O)NC[C@@H](CO)OCP(=O)(O)O | > 50 µg/mL | > 100 µg/mL | > 100 µg/mL | > 100 µg/mL | > 100 µg/mL | > 100 µg/mL | > 50 µg/mL | > 100 µg/mL | > 100 µg/mL | > 100 µg/mL | > 50 µg/mL | > 50 µg/mL | > 100 µg/mL | > 100 µg/mL | > 50 µg/mL | > 100 µg/mL | > 100 µg/mL | 35.5 µg/mL (≈ 131 µM) | > 50 µg/mL | > 100 µg/mL | EC50 [1]: > 100 µg/mL; EC50 [5]: > 100 µg/mL; MCC [6]: > 200 µg/mL; EC50 [11]: 68 µg/mL (≈ 252 µM); MCC [12]: > 100 µg/mL; CC50 [25]: > 50 µg/mL; EC50 (Yellow fever virus): > 100 µg/mL; CC50 [17]: > 100 µg/mL; EC50 (Human alphaherpesvirus 2 [21]): > 50 µg/mL; EC50 (Human adenovirus 2): > 100 µg/mL; EC50 (Human betaherpesvirus 5 [23]): 36.8 µg/mL (≈ 136 µM); EC50 (Human alphaherpesvirus 1 [24]): > 50 µg/mL
6 | Nc1ncn(CCOCP(=O)(O)O)c(=O)n1 | 25.8 µg/mL (≈ 103 µM) | > 80 µg/mL | > 80 µg/mL | > 80 µg/mL | > 80 µg/mL | > 100 µg/mL | > 100 µg/mL | > 80 µg/mL | 400 µg/mL | 400 µg/mL | > 50 µg/mL | 9.9 µg/mL (≈ 39.6 µM) | > 80 µg/mL | > 80 µg/mL | 25 µg/mL (≈ 99.9 µM) | 400 µg/mL | > 80 µg/mL | 49 µg/mL (≈ 196 µM) | 10 µg/mL (≈ 40 µM) | > 80 µg/mL | EC50 [1]: > 100 µg/mL; EC50 [5]: > 100 µg/mL; EC50 (Hepatitis C virus): > 50 µg/mL; EC50 [11]: 7.5 µg/mL (≈ 30 µM); MCC [12]: 200 µg/mL; CC50 [25]: > 50 µg/mL; EC50 (Yellow fever virus): > 100 µg/mL; CC50 [17]: 96 µg/mL (≈ 384 µM); EC50 (Human alphaherpesvirus 2 [21]): 39.3 µg/mL (≈ 157 µM); EC50 (Human betaherpesvirus 5 [23]): 37 µg/mL (≈ 148 µM); EC50 (Human alphaherpesvirus 1 [24]): 17 µg/mL (≈ 68 µM)
7 | C[C@H](Cn1cnc(N)nc1=O)OCP(=O)(O)O | > 100 µg/mL | > 100 µg/mL | > 100 µg/mL | > 100 µg/mL | > 100 µg/mL | > 100 µg/mL | > 50 µg/mL | > 100 µg/mL | > 100 µg/mL | > 100 µg/mL | > 50 µg/mL | > 100 µg/mL | > 100 µg/mL | > 100 µg/mL | > 100 µg/mL | > 100 µg/mL | > 100 µg/mL | > 100 µg/mL | > 100 µg/mL | > 100 µg/mL | EC50 [1]: > 100 µg/mL; EC50 [5]: > 100 µg/mL; EC50 [11]: > 100 µg/mL; MCC [12]: > 100 µg/mL; CC50 [17]: > 100 µg/mL; EC50 (Human betaherpesvirus 5 [23]): > 100 µg/mL
